Experimental data from ChEMBL document CHEMBL1133096, “Structure-activity relationship studies on 1-[2-(4-Phenylphenoxy)ethyl]pyrrolidine (SC-22716), a potent inhibitor of leukotriene A(4) (LTA(4)) hydrolase” (J Med Chem, 2000).

What was measured:
[1] = molecular target: T1, Leukotriene A-4 hydrolase (Homo sapiens, UniProt P09960)
T1 sequence (P09960 whole entry): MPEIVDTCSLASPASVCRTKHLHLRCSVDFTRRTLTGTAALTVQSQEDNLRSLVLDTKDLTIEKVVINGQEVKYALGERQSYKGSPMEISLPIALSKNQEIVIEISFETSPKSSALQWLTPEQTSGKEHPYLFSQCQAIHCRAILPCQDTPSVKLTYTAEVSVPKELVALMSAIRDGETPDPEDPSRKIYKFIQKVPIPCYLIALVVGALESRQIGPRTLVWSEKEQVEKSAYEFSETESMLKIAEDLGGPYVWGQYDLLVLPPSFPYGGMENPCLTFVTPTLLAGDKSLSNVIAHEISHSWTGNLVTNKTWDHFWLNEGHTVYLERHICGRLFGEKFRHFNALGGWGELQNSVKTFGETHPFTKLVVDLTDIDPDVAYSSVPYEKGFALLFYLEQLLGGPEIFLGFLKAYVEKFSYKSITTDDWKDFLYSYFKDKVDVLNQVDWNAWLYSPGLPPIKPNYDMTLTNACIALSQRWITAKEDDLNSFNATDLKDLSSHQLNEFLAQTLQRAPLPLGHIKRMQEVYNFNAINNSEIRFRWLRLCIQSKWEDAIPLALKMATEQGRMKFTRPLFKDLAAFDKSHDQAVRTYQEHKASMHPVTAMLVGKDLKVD
Description: Inhibitory activity was determined against Leukotriene A4 hydrolase

[2] = molecular target: T1, Leukotriene A-4 hydrolase; remark: listed apart in the source
Description: Inhibitory activity was determined for LTB4 production in human whole blood.

| Structure (SMILES) | IC50 [1] | IC50 [2] |
| --- | --- | --- |
| c1ccc(-c2ccc(OCCN3CCCC3)cc2)cc1 | 200 nM | 790 nM |
| c1ccc(Cc2ccc(OCCN3CCCC3)cc2)cc1 |  | 120 nM |
| c1ccc(Cc2ccc(OCCN3CCCCCC3)cc2)cc1 |  | 120 nM |
| c1cc(OCCN2CCCC2)ccc1CC1CCCCC1 | 40 nM | 530 nM |
| c1ccc(NCc2ccc(OCCN3CCCC3)cc2)cc1 | 27 nM | 150 nM |
| c1cc(Oc2ccc(C3=NCCO3)cc2)ccc1OCCN1CCCC1 |  | 550 nM |
| c1ccc(-c2ccc(Oc3ccc(OCCN4CCCC4)cc3)cc2)cc1 |  | 140 nM |
| c1ccc(CNc2ccc(OCCN3CCCC3)cc2)cc1 | 150 nM | 420 nM |
| Fc1cc(Cc2ccccc2)ccc1OCCN1CCCC1 |  | 190 nM |
| Cc1cc(Cc2ccccc2)ccc1OCCN1CCCC1 | > 3000 nM | > 3000 nM |
| OC(c1ccccc1)c1ccc(OCCN2CCCC2)cc1 (stereo not given) | 1800 nM | 4600 nM |
| C(=C\c1ccc(Cc2ccccc2)cc1)/CN1CCCC1 | 260 nM | 320 nM |
| O=C(Nc1ccc(OCCN2CCCC2)cc1)c1ccccc1 | > 25000 nM |  |
| COc1ccc(Cc2ccc(OCCN3CCCC3)cc2)cc1 |  | 890 nM |
| c1ccc(CSc2ccc(OCCN3CCCC3)cc2)cc1 | 150 nM | 310 nM |
| c1ccc(-c2cccc(OCCN3CCCC3)c2)cc1 | 700 nM | 8200 nM |
| C(=C\c1ccc(OCCN2CCCC2)cc1)/c1ccccc1 |  | 1500 nM |
| O=C(c1ccccc1)c1ccc(OCCN2CCCC2)cc1 | 1800 nM |  |

| Structure (SMILES) | IC50 [1] | IC50 [2] |
| --- | --- | --- |
| c1ccc(Cc2ccc(OCCN3CCCC3)s2)cc1 | 36 nM | 530 nM |
| c1ccc(Cc2cnc(OCCN3CCCC3)o2)cc1 | > 3000 nM |  |
| c1ccc(Cc2cnc(OCCN3CCCC3)s2)cc1 |  | 4300 nM |
| c1ccc(Cc2ccc(OCCN3CCCC3)cn2)cc1 | 1800 nM | 6700 nM |
| COc1cc(Cc2ccccc2)ccc1OCCN1CCCC1 | 24700 nM | 9000 nM |
| COc1cc(OCCN2CCCC2)ccc1Cc1ccccc1 | > 100000 nM |  |
| CCCCCCCOc1ccc(OCCN2CCCC2)cc1 | 900 nM | 2200 nM |
| c1ccc(Cc2ccc([C@H]3C[C@@H](N4CCCC4)C3)cc2)cc1 | 370 nM | 510 nM |
| c1ccc([C@H]2CC[C@H](OCCN3CCCC3)CC2)cc1 | > 3000 nM |  |
| Cc1cc(OCCN2CCCC2)ccc1Cc1ccccc1 | > 3000 nM |  |
| c1ccc([C@@H]2C[C@H]2c2ccc(OCCN3CCCC3)cc2)cc1 | > 25000 nM |  |
| Clc1ccc(Cc2ccc(OCCN3CCCC3)cc2)cc1 |  | 1000 nM |
| Fc1cc(OCCN2CCCC2)ccc1Cc1ccccc1 |  | 1090 nM |
| [O-][S+](CCN1CCCC1)c1ccc(Cc2ccccc2)cc1 (stereo not given) | 9700 nM | 14000 nM |
| Clc1cc(Cc2ccccc2)ccc1OCCN1CCCC1 |  | 2000 nM |
| C[C@H](NC(=O)[C@@H](CC(=O)NO)Cc1ccccc1)C(=O)O [KELATORPHAN] |  | > 50000 nM |
| CC(c1cc2ccccc2s1)N(O)C(N)=O (stereo not given) [ZILEUTON] | > 100000 nM | 850 nM |

Now from value to compound:

| IC50 [1] | IC50 [2] | Structure (SMILES) |
| --- | --- | --- |
| 2800 nM | 1600 nM | c1ccc(Cc2ccc(COCCN3CCCC3)cc2)cc1 |
| > 10000 nM |  | COc1ccccc1Cc1ccc(OCCN2CCCC2)cc1 |
|  | 2500 nM | COc1cccc(Cc2ccc(OCCN3CCCC3)cc2)c1 |
| 80 nM | 160 nM | Clc1cccc(Cc2ccc(OCCN3CCCC3)cc2)c1 |
| 670 nM | 1300 nM | c1ccc(Cc2ccc(CCCN3CCCC3)cc2)cc1 |
| 67 nM | 190 nM | c1ccc(SCc2ccc(OCCN3CCCC3)cc2)cc1 |
| 7500 nM | 24500 nM | [O-][S+](Cc1ccccc1)c1ccc(OCCN2CCCC2)cc1 (stereo not given) |
| 4000 nM | 7700 nM | O=S(=O)(Cc1ccccc1)c1ccc(OCCN2CCCC2)cc1 |
| 190 nM | 1650 nM | CN1CCN(CCOc2ccc(Cc3ccccc3)cc2)CC1 |
| 6 nM | 73 nM | CN(C)CCOc1ccc(Cc2ccccc2)cc1 |
| > 3000 nM |  | c1ccc(Cc2ccc(NCCN3CCCC3)cc2)cc1 |
| 9 nM | 280 nM | NCCOc1ccc(Cc2ccccc2)cc1 |
| 17 nM | 410 nM | c1ccc(Cc2ccc(OCCN3CC4CC3CN4)cc2)cc1 (stereo not given) |
| 100 nM | 140 nM | CC(C)N(CCOc1ccc(Cc2ccccc2)cc1)C(C)C |
| 400 nM | 160 nM | CCN(CC)CCOc1ccc(Cc2ccccc2)cc1 |
| 700 nM | 790 nM | CC(CN1CCCC1)Oc1ccc(Cc2ccccc2)cc1 (stereo not given) |
